Data taken from PubChem BioAssay (NCI).
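Step 1: Grow cells in 96-well plates. Step 2: Expose to compound for 48 hours at 5 concentrations. Step 3: Interpolate endpoints linearly; if unreached, use highest concentration. TGI: concentration producing complete growth inhibition.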 Where a SMILES comes first, the peptide text is derived from it. Bridges are numbered along the chain shown (N, C = ends). [ ]: non-standard residue; d: D form. The star is where a group is joined. PhAc = O=C(Cc1ccccc1)*

How the values were obtained:
Assay in all cases: DTP human tumour cell line panel, 48 h
[1] = tested on: OVCAR-4 ovarian
[2] = tested on: HL-60(TB) leukemia
[3] = tested on: CCRF-CEM leukemia
[4] = tested on: HT29 colon
[5] = tested on: EKVX NSCLC
[6] = tested on: SK-MEL-5 melanoma
[7] = tested on: M14 melanoma
[8] = tested on: SF-295 CNS
[9] = tested on: SN12C renal
[10] = tested on: A498 renal
[11] = tested on: SW-620 colon
[12] = tested on: SF-539 CNS
[13] = tested on: HS 578T breast
[14] = tested on: PC-3 prostate
[15] = tested on: SNB-19 CNS
[16] = tested on: KM12 colon
[17] = tested on: SNB-75 CNS
[18] = tested on: U251 CNS
[19] = tested on: NCI-H522 lung

SMILES | TGI [1] | TGI [2] | TGI [3] | TGI [4] | TGI [5] | TGI [6] | TGI [7] | TGI [8] | TGI [9] | TGI [10] | TGI [11] | TGI [12] | TGI [13] | TGI [14] | TGI [15] | TGI [16] | TGI [17] | TGI [18] | TGI [19]
O=C(Cc1ccccc1)N[C@@H]1COC(=O)[C@@H]2CCCN2C(=O)[C@@H]2CCCN2C1=O (PhAc-[dS]-Pro-Pro; ester 1-C) | > 100 µM | > 100 µM | > 100 µM | > 100 µM | > 100 µM | > 100 µM | > 100 µM | > 100 µM | > 100 µM | > 100 µM | > 100 µM | > 100 µM | > 100 µM | > 100 µM | > 100 µM | > 100 µM |  |  | 
Cc1cc(=O)oc2cc(SC(=O)N(C)C)ccc12 | > 100 µM | > 100 µM |  | > 100 µM | > 100 µM | > 100 µM | > 100 µM | > 100 µM | > 100 µM | > 100 µM | > 100 µM | > 100 µM | > 100 µM | > 100 µM | > 100 µM | > 100 µM | > 100 µM | > 100 µM | > 100 µM
COc1ccc(C2=Nn3c(nc4sc(C)c(C)c4c3=O)SC2)cc1 | > 100 µM | > 100 µM | > 100 µM | > 100 µM | > 100 µM | > 100 µM |  | > 100 µM | > 100 µM | > 100 µM | > 100 µM | > 100 µM | > 100 µM | > 100 µM |  | > 100 µM | > 100 µM | > 100 µM | > 100 µM
COc1ccc(CC2c3cc(OC)c(OC)c(OC)c3CC[N+]2(C)C)cc1Oc1ccc(CC2c3cc4c(c(OC)c3CC[N+]2(C)C)OCO4)cc1 (centres undefined) | > 100 µM | > 100 µM | > 100 µM | > 100 µM | > 100 µM | > 100 µM | > 100 µM | > 100 µM | > 100 µM | > 100 µM | > 100 µM |  | > 100 µM | > 100 µM | > 100 µM | > 100 µM | > 100 µM | > 100 µM | > 100 µM
CCSC1=N/C(=C\c2ccco2)C(NN)=N1 |  | > 50 µM | > 50 µM | > 50 µM | > 50 µM | > 50 µM | > 50 µM | > 50 µM | > 50 µM | > 50 µM | > 50 µM | > 50 µM | > 50 µM | > 50 µM | > 50 µM | > 50 µM | > 50 µM | > 50 µM | > 50 µM
C=C1[C@H](OC(=O)C(C)C)[C@@H](OC(C)=O)[C@@H](OC(C)=O)C(C)(C)[C@@H]2O[C@H]2[C@@H](C)C(=O)[C@@]2(OC(C)=O)C[C@@](C)(OC(C)=O)[C@H](OC(C)=O)[C@@H]2[C@H]1OC(C)=O | > 100 µM | > 100 µM | > 100 µM | > 100 µM | > 100 µM | > 100 µM | > 100 µM | > 100 µM | > 100 µM | > 100 µM | > 100 µM | > 100 µM | > 100 µM | > 100 µM | > 100 µM | > 100 µM |  | > 100 µM | > 100 µM
CCOC(=O)/C(C=Nc1c(C)n(C)n(-c2ccccc2)c1=O)=C(/O)c1ccccc1 | > 100 µM | > 100 µM | > 100 µM | > 100 µM | > 100 µM | > 100 µM | > 100 µM | > 100 µM | > 100 µM | > 100 µM | > 100 µM | > 100 µM | > 100 µM | > 100 µM | > 100 µM | 0.746 µM |  | > 100 µM | > 100 µM
CN(C)C(=S)N1C(=S)N(c2ccccc2)C(=Nc2ccccc2)C1=Nc1ccccc1 | > 100 µM | > 100 µM | > 100 µM | > 100 µM | > 100 µM | > 100 µM |  | > 100 µM | > 100 µM | > 100 µM | > 100 µM | > 100 µM | > 100 µM | > 100 µM | > 100 µM | > 100 µM | > 100 µM | > 100 µM | > 100 µM
C=CC(CBr)CCC(Br)C(C)(C)Br (centres undefined) | > 10 µM |  | > 10 µM | > 10 µM | > 10 µM | > 10 µM | > 10 µM | > 10 µM | > 10 µM | > 10 µM | > 10 µM | > 10 µM | > 10 µM | > 10 µM | > 10 µM | > 10 µM | > 10 µM | > 10 µM | > 10 µM
CC(C)/C(Cl)=N/OC(=O)Nc1cccc(C(F)(F)F)c1 | 16.6 µM | 2.22 µM | 13.8 µM | 10.6 µM | 7.1 µM | 21.3 µM | 13.3 µM | 33 µM | 20.1 µM | 37.1 µM | 1.8 µM |  | > 69.4 µM | 29.8 µM | 34 µM | 29.8 µM | 21.2 µM | 31.3 µM | 0.951 µM
O=C(/C=C/c1ccc(O)c(O)c1)OCc1ccccc1 | 79.2 µM | 4.66 µM |  | > 100 µM | > 100 µM | 24.3 µM | 48.2 µM | 57.4 µM | 51.8 µM | 50.5 µM | > 100 µM | 24.5 µM | > 100 µM | 85.1 µM | 97.6 µM | > 100 µM |  | 49.6 µM | 7.77 µM
N=c1oc2c(Br)cc(Br)cc2cc1C(=O)Nc1ccccn1 | > 100 µM | > 100 µM | > 100 µM | > 100 µM | > 100 µM | > 100 µM | > 100 µM |  | > 100 µM | > 100 µM | > 100 µM | > 100 µM | > 100 µM | > 100 µM | > 100 µM | > 100 µM | > 100 µM | > 100 µM | > 100 µM
O=c1[nH]c(=O)n(C2OC(CO)C(O)C2O)c2ncc(-c3ccc(-c4ccccc4)cc3)nc12 (centres undefined) | > 20 µM |  | > 20 µM | > 20 µM | > 20 µM | > 20 µM |  | > 20 µM | > 20 µM | > 20 µM | > 20 µM | > 20 µM | > 20 µM | > 20 µM | > 20 µM | > 20 µM | > 20 µM | > 20 µM | > 20 µM
